# Data from patent US20260297060A1, “COMPOUNDS FOR THE DEGRADATION OF MUTANT BRAF” (C4 THERAPEUTICS, INC., priority 2023, published 2026).
# Assays:
# [1] = test system: A375 human melanoma xenografts; test: Example 6 efficacy study in A375 human melanoma xenografts (tumor volume, T/C, TGI); format: in vivo, BALB/c nude mice; conditions: 10 mg/kg, p.o., BID × 21 days; for T/C / TGI / Tumor Size on PG-D21: PG-D21; for Tumor Size on PG-D21 / Tumor volume: Mean ± SEM
# Method: For efficacy study, compounds were tested in the A375 human melanoma xenografts. Known BRAF inhibitors encorafenib, and dabrafenib were used as positive controls. Encorafenib and dabrafenib were administered to BALB/c nude mice bearing A375 tumors on PG-D1 and dosed PO daily (QD) for 3 weeks. Encorafenib was dosed at 35 mg/kg. Dabrafenib was dosed at 100 mg/kg. Compound 83, Compound 93, Compound 70, and Compound 54 were administered to BALB/c nude mice bearing A375 tumors on PG-DO and dosed PO twice per day (BID) for 3 weeks. Compound 83, Compound 93, Compound 70, and Compound 54 were dosed at 10 mg/kg.
# (§1) The A375 tumor cells were maintained in vitro in DMEM medium supplemented with 100 fetal bovine serum and 1% Penicillin-Streptomycin at 37° C. in an atmosphere of 5% CO2 in air. The tumor cells were routinely subcultured twice weekly. The cells growing in an exponential growth phase were harvested and counted for tumor inoculation.
# Each mouse was inoculated subcutaneously at the right flank with A375 tumor cells (5×10^6) in 0.2 mL of PBS with Matrigel (PBS: Matrigel=1:1) supplemented for tumor development. Animals were grouped for the treatment on day 16 after tumor inoculation when the average tumor volume reached 221 mm^3 for efficacy study and 386 mm^3 for PKPD study. The test articles administration and the animal numbers in each group are shown in the above experimental Tables.
# (§2) Prior to the onset of drug treatment, mice were measured for tumor size in two dimensions using a caliper, and the tumor volume (mm^3) was calculated using formula V=0.5 a×b^2 where a and b are the long and short diameters of the tumor in mm, respectively. Mice were randomized into different treatment groups based on the tumor volume.
# (§3) The major endpoint was to see if the tumor growth could be delayed or mice could be cured. The tumor size was then used for calculations of T/C value. The T/C value (in percent) is an indication of antitumor effectiveness; T and C are the mean volumes of the treated and control groups, respectively on specified day.
# (§4) TGI was calculated for each group using the formula: TGI (%)=[1−(Ti−T0)/(Ci−C0)]×100; Ti is the average tumor volume of a treatment group on a given day, T0 is the average tumor volume of the treatment group on the day of treatment start, Ci is the average tumor volume of the vehicle control group on the same day with Ti, and C0 is the average tumor volume of the vehicle group on the day of treatment start.
# [2] = test system: A375 human melanoma xenografts; test: Example 9 efficacy study Part II in A375 human melanoma xenografts (tumor volume, T/C, TGI); format: in vivo, BALB/c nude mice; conditions: 10 mg/kg, p.o., BID × 14 days; for Tumor Size on PG-D14: Mean ± SEM; for TGI (Tumor Growth Inhibition): PG-D14; for T/C: PG-D14, treated/control average tumor volume
# Method: For efficacy study Part II, agents were tested in the A375 human melanoma xenografts model. Compound 133, Compound 144 and Compound 198 were administered to BALB/c nude mice bearing A375 xenografts from day 0 and dosed twice a day (BID) for 14 days. Compound 133, Compound 144 and Compound 198 were dosed at 10 mg/kg via p.o..
# as §1, with “[…]” for “100”
# Each mouse was inoculated subcutaneously at the right flank with A375 cells (5×10^6) in 0.2 mL of PBS supplemented with Matrigel (PBS: Matrigel=1:1) for tumor development. Animals were grouped for the treatment when the average tumor volume reached 243 mm^3 for efficacy study part I and 413 mm^3 for the PK and PD study part I on day 15, and 271 mm^3 for efficacy part II and 443 mm^3 for the PK and PD part II on day 18, and 463 mm^3 for the PK and PD study part III on day 21. The test articles administration and the animal numbers in each group are shown in the above experimental tables.
# as §2, §3
# as §4, with “day, To” for “day, T0”
structure (smiles),measurement,setting,value
"CCN(C)S(=O)(=O)Nc1ccc(F)c(Oc2ccc3ncc([C@@H]4COC5(CCN(C6CCC(c7cc8c(cc7F)c(N7CCC(=O)NC7=O)nn8C)CC6)CC5)C4)nc3c2)c1C#N (single isomer, unassigned) [Compound 54]",T/C,[1],4.1%
same,TGI,[1],106.6%
same,Tumor Size on PG-D21,[1],90 ± 27 mm^3
same,Tumor volume,[1]; day 0,221 ± 11 mm^3
same,Tumor volume,[1]; day 4,132 ± 13 mm^3
same,Tumor volume,[1]; day 7,90 ± 14 mm^3
same,Tumor volume,[1]; day 11,65 ± 13 mm^3
same,Tumor volume,[1]; day 14,57 ± 13 mm^3
same,Tumor volume,[1]; day 18,53 ± 13 mm^3
same,Tumor volume,[1]; day 21,90 ± 27 mm^3
"CCN(C)S(=O)(=O)Nc1ccc(F)c(Oc2ccc3ncn([C@H]4COC5(CCN(C6CC(c7cc8c(cc7F)c(N7CCC(=O)NC7=O)nn8C)C6)CC5)C4)c(=O)c3c2)c1C#N (single isomer, unassigned) [Compound 70]",T/C,[1],0.9%
same,TGI,[1],110.1%
same,Tumor Size on PG-D21,[1],19 ± 2 mm^3
same,Tumor volume,[1]; day 0,221 ± 10 mm^3
same,Tumor volume,[1]; day 4,111 ± 13 mm^3
same,Tumor volume,[1]; day 7,66 ± 6 mm^3
same,Tumor volume,[1]; day 11,44 ± 3 mm^3
same,Tumor volume,[1]; day 14,34 ± 2 mm^3
same,Tumor volume,[1]; day 18,24 ± 2 mm^3
same,Tumor volume,[1]; day 21,19 ± 2 mm^3
"CCN(C)S(=O)(=O)Nc1ccc(F)c(Oc2ccc3ncn(C4CC5(CCN(C6CCC(c7cc8c(cc7F)c(N7CCC(=O)NC7=O)nn8C)CC6F)CC5)C4)c(=O)c3c2)c1C#N (single isomer, unassigned) [Compound 83, 6-[2-cyano-3-[[ethyl(methyl)sulfamoyl]amino]-6-fluoro-phenoxy]-3-[7-[4-[3-(2,4-dioxohexahydropyrimidin-1-yl)-5-fluoro-1-methyl-indazol-6-yl]-2-fluoro-cyclohexyl]-7-azaspiro[3.5]nonan-2-yl]-4-oxo-quinazoline]",T/C,[1],0.7%
same,TGI,[1],110.3%
same,Tumor Size on PG-D21,[1],15 ± 1 mm^3
same,Tumor volume,[1]; day 0,221 ± 11 mm^3
same,Tumor volume,[1]; day 4,89 ± 11 mm^3
same,Tumor volume,[1]; day 7,62 ± 7 mm^3
same,Tumor volume,[1]; day 11,39 ± 3 mm^3
same,Tumor volume,[1]; day 14,31 ± 2 mm^3
same,Tumor volume,[1]; day 18,22 ± 1 mm^3
same,Tumor volume,[1]; day 21,15 ± 1 mm^3
"Cn1nc(N2CCC(=O)NC2=O)c2cc(F)c(C3CCC(N4CCC5(CC4)CC(n4cnc6ccc(Oc7c(F)ccc(NS(=O)(=O)C8CCCC8)c7C#N)cc6c4=O)C5)CC3)cc21 (single isomer, unassigned) [Compound 93, N-[2-cyano-3-[3-[7-[4-[3-(2,4-dioxohexahydropyrimidin-1-yl)-5-fluoro-1-methyl-indazol-6-yl]cyclohexyl]-7-azaspiro[3.5]nonan-2-yl]-4-oxo-quinazolin-6-yl]oxy-4-fluoro-phenyl]cyclopentanesulfonamide]",T/C,[1],3.3%
same,TGI,[1],107.4%
same,Tumor Size on PG-D21,[1],73 ± 18 mm^3
same,Tumor volume,[1]; day 0,221 ± 9 mm^3
same,Tumor volume,[1]; day 4,133 ± 6 mm^3
same,Tumor volume,[1]; day 7,97 ± 6 mm^3
same,Tumor volume,[1]; day 11,69 ± 5 mm^3
same,Tumor volume,[1]; day 14,59 ± 5 mm^3
same,Tumor volume,[1]; day 18,52 ± 4 mm^3
same,Tumor volume,[1]; day 21,73 ± 18 mm^3
"Cn1nc(N2CCC(=O)NC2=O)c2cc(F)c(N3CC4(CC(N5CCC6(CC5)C[C@@H](n5cnc7ccc(Oc8c(F)ccc(NS(=O)(=O)N9CC[C@@H](F)C9)c8C#N)cc7c5=O)CO6)C4)C3)cc21 [Compound 133, (3R)-N-[2-cyano-3-[3-[(3R)-8-[2-[3-(2,4-dioxohexahydropyrimidin-1-yl)-5-fluoro-1-methyl-indazol-6-yl]-2-azaspiro[3.3]heptan-6-yl]-1-oxa-8-azaspiro[4.5]decan-3-yl]-4-oxo-quinazolin-6-yl]oxy-4-fluoro-phenyl]-3-fluoro-pyrrolidine-1-sulfonamide]",Tumor Volume Trace Over Time,"[2]; Day 0, Mean ± SEM",271 mm^3
same,Tumor Volume Trace Over Time,"[2]; Day 4, Mean ± SEM",193 mm^3
same,Tumor Volume Trace Over Time,"[2]; Day 7, Mean ± SEM",99 mm^3
same,Tumor Volume Trace Over Time,"[2]; Day 11, Mean ± SEM",71 mm^3
same,Tumor Volume Trace Over Time,"[2]; Day 14, Mean ± SEM",32 mm^3
same,Tumor Size on PG-D14,[2],32 ± 7 mm^3
same,TGI (Tumor Growth Inhibition),[2],125.20%
same,T/C,[2],2.65%
"CO[C@@H]1CCN(S(=O)(=O)Nc2ccc(F)c(Oc3ccc4ncn([C@H]5COC6(CCN(C7CC8(C7)CN(c7cc9c(cc7F)c(N7CCC(=O)NC7=O)nn9C)C8)CC6)C5)c(=O)c4c3)c2C#N)C1 [Compound 144, (3R)-N-[2-cyano-3-[3-[(3R)-8-[2-[3-(2,4-dioxohexahydropyrimidin-1-yl)-5-fluoro-1-methyl-indazol-6-yl]-2-azaspiro[3.3]heptan-6-yl]-1-oxa-8-azaspiro[4.5]decan-3-yl]-4-oxo-quinazolin-6-yl]oxy-4-fluoro-phenyl]-3-methoxy-pyrrolidine-1-sulfonamide]",Tumor Volume Trace Over Time,"[2]; Day 0, Mean ± SEM",271 mm^3
same,Tumor Volume Trace Over Time,"[2]; Day 4, Mean ± SEM",167 mm^3
same,Tumor Volume Trace Over Time,"[2]; Day 7, Mean ± SEM",79 mm^3
same,Tumor Volume Trace Over Time,"[2]; Day 11, Mean ± SEM",51 mm^3
same,Tumor Volume Trace Over Time,"[2]; Day 14, Mean ± SEM",28 mm^3
same,Tumor Size on PG-D14,[2],28 ± 5 mm^3
same,TGI (Tumor Growth Inhibition),[2],125.70%
same,T/C,[2],2.27%
"CCN(C)S(=O)(=O)Nc1ccc(F)c(Oc2ccc3ncn(C4CC5(CCN(C6CC7(CCN(c8cc9c(cc8F)c(N8CCC(=O)NC8=O)nn9C)CC7)C6)CC5)C4)c(=O)c3c2)c1C#N (stereo not shown) [Compound 198, 6-[2-cyano-3-[[ethyl(methyl)sulfamoyl]amino]-6-fluoro-phenoxy]-3-[7-[7-[3-(2,4-dioxohexahydropyrimidin-1-yl)-5-fluoro-1-methyl-indazol-6-yl]-7-azaspiro[3.5]nonan-2-yl]-7-azaspiro[3.5]nonan-2-yl]-4-oxo-quinazoline]",Tumor Volume Trace Over Time,"[2]; Day 0, Mean ± SEM",271 mm^3
same,Tumor Volume Trace Over Time,"[2]; Day 4, Mean ± SEM",192 mm^3
same,Tumor Volume Trace Over Time,"[2]; Day 7, Mean ± SEM",93 mm^3
same,Tumor Volume Trace Over Time,"[2]; Day 11, Mean ± SEM",60 mm^3
same,Tumor Volume Trace Over Time,"[2]; Day 14, Mean ± SEM",58 mm^3
same,Tumor Size on PG-D14,[2],58 ± 13 mm^3
same,TGI (Tumor Growth Inhibition),[2],122.45%
same,T/C,[2],4.79%
